In patent US9132130B2, “Purine derivative and antitumor agent using same” (ZENYAKU KOGYO KABUSHIKI KAISHA, priority 2009, dated 2015):

What was measured:
[1] = tested on: human colon cancer WiDr; test: in vivo antitumor activity, nude mice transplanted with human colon cancer WiDr; parameters: species or system BALB/c-nu/nu mice; settings: 400 mg/kg orally daily day 0 to day 13 (12 times), tumor volume at day 14
Procedure: (§1) Tumor tissue fragments of human colon cancer WiDr (3 mm×3 mm×3 mm) were transplanted subcutaneously into the chests of six-week-old female BALB/c-nu/nu mice, and sample administration started when the tumor volume reached at least approximately 100 mm^3 (day 0). Compound 2 was suspended in a 1% HPC (L) solution using an agate mortar. 400 mg/kg of Compound 2 was orally administered daily from day 0 to day 13 (excluding day 3 and day 10, a total of 12 times). Tumor diameters were measured to calculate tumor volume (½×long diameter×short diameter×short diameter), and the tumor volume after 14 days (at day 14) from the start of sample administration was divided by the tumor volume at the start of the administration to calculate relative tumor growth rate. The percentage of the relative tumor growth rate of the control group with respect to the relative tumor growth rate of the group administered with Compound 2 was taken as T/C (%).

[2] = tested on: MCF-7 cells (human breast cancer cells); test: antitumor activity against breast cancer cells, cell counting; type: cell-based; settings: MCF7; MCF-7 human breast cancer cells, cultured 72 hours, cell counter
Procedure: MCF-7 cells (human breast cancer cells) subcultured in a culture medium composed of a MEM medium added with 10% fetal bovine serum, 25 mM HEPES and 0.1 mg/ml kanamycin under the conditions of 37° C. and 5% carbon dioxide gas were made into single floating cells by treating with trypsin/EDTA, and a single cell suspension of 4×10^4 cells per 1 ml was prepared using the MEM medium (added with 10% fetal bovine serum, 25 mM HEPES and 0.1 mg/ml kanamycin). After dissolving the test substances (Compound 2 and Compound 7) in DMSO, they were diluted with the MEM medium (added with 10% fetal bovine serum, 25 mM HEPES and 0.1 mg/ml kanamycin) and prepared so that the concentrations were 6.4×10^−8 to 2.0×10^−5 M.
0.1 ml of the cell suspension was placed into each well of a 96-well microplate, cultured for 24 hours to allow the cells to adhere to the microplate, then 0.1 ml of the sample solutions were added, and cultured for 72 hours at 37° C. in 5% carbon dioxide gas.
Afterwards, the cells in each well were made single floating cells by treating with trypsin/EDTA, and the number of cells was counted using a cell counter to obtain the growth inhibition rate at various sample concentrations and calculate the concentrations at which growth was inhibited by 50% (GI50 values [μM]).

[3] = tested on: P388 cells (mouse leukemia cells); test: in vitro antitumor activity test, P388 cells, XTT colorimetry; type: cell-based; settings: cultured 72 hours
Summary of the method: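 Cells from DBA/2 mouse ascites, in RPMI 1640 with 10% FBS and 25 mM HEPES, seeded from a 4×10^4 cells/ml suspension. Equal volume added of compound solutions prepared at 2.0×10^−9 to 2.0×10^−4 M (pre-mixing). After 72 h at 37° C, 5% CO2, growth read by XTT; GI50 (μM) is the concentration giving 50% growth inhibition.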

[4] = tested on: B16F10 cells (mouse melanoma [malignant melanoma] cells); test: in vitro antitumor activity test, B16F10 cells, XTT colorimetry; type: cell-based; settings: B16-F10, cultured 72 hours
Summary of the method: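 B16F10 mouse melanoma cells were seeded from a 1×10^4 cells/ml suspension and allowed to adhere for 24 h. Compounds in DMSO were diluted in RPMI 1640 with 10% FBS to 2.0×10^−9 to 2.0×10^−4 M and incubated 72 h at 37° C, 5% CO2. XTT colorimetry gave GI50 (μM).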

[5] = tested on: human lung cancer A549; test: in vivo antitumor activity, nude mice transplanted with human lung cancer A549; parameters: species or system BALB/c-nu/nu mice; settings: 400 mg/kg orally daily day 0 to day 13 (12 times), tumor volume at day 14
Procedure: as §1, with “of human lung cancer A549” for “of human colon cancer WiDr”, “lung cancer A549 (3 mm×3” for “colon cancer WiDr (3 mm×3”, “Compound 2 and Compound 7 were suspended in” for “Compound 2 was suspended in”, “a 1% hydroxypropylcellulose (HPC [L]) solution using” for “a 1% HPC (L) solution using”, “day 10, a total of 12 times). 400 mg/kg of Compound 7 was intraperitoneally administered daily from day 0 to day 13 (excluding day 4 and day 11, a total” for “day 10, a total”, “Compound 2 or Compound 7 was taken” for “Compound 2 was taken”

[6] = tested on: WiDr cells (human colon cancer cells); test: in vitro antitumor activity test, WiDr cells, XTT colorimetry; type: cell-based; settings: cultured 72 hours
Summary of the method: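 Human colon cancer cells in MEM/10% FBS were seeded 3×10^4 cells/ml and allowed to adhere for 24 h, then exposed to compounds prepared at 2.0×10^−9 to 2.0×10^−4 M in RPMI 1640 for 72 h at 37° C, 5% CO2. Growth was read by XTT colorimetry and GI50 (μM) calculated.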

[7] = tested on: A549 cells (human lung cancer cells); test: in vitro antitumor activity test, A549 cells, XTT colorimetry; type: cell-based; settings: cultured 72 hours
Summary of the method: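 Cells seeded at 2×10^4 cells/ml in MEM + 10% FBS, 25 mM HEPES, kanamycin, allowed to adhere 24 h, then exposed to compounds (DMSO stocks diluted in RPMI 1640; prepared at 2.0×10^−9 to 2.0×10^−4 M) for 72 h at 37 °C, 5% CO2. Growth inhibition read by XTT colorimetry; GI50 (μM) calculated.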

[8] = tested on: PC-3 cells (human prostate cancer cells); test: in vitro antitumor activity test, PC-3 cells, XTT colorimetry; type: cell-based; settings: PC-3 human prostate cancer cells, cultured 72 hours
Summary of the method: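 PC-3 human prostate cancer cells, seeded at 2×10^4 cells/ml and allowed to adhere for 24 h, were exposed 72 h at 37° C, 5% CO2 to compound diluted in RPMI 1640 with 10% FBS to 2.0×10^−9 to 2.0×10^−4 M (pre-addition solutions). Growth was measured by XTT colorimetry and GI50 (μM) calculated.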

[9] = tested on: human prostate cancer PC-3; test: in vivo antitumor activity, nude mice transplanted with human prostate cancer PC-3; parameters: species or system BALB/c-nu/nu mice; settings: PC-3 in nude mice, 400 mg/kg orally daily day 0 to day 13 (12 times), tumor volume at day 14
Procedure: as §1, with “prostate” for “colon”, “PC-3” for “WiDr”

- melting point: 139 °C
- GI50 [3]: 110 nM
- GI50 [4]: 300 nM
- GI50 [6]: 300 nM
- GI50 [7]: 140 nM
- GI50 [8]: 100 nM
SMILES: CCc1nc2c(N3CCOCC3)nc(SCc3ccc(OC)c(N)c3)nc2n1C [Compound 2, 2-(3-amino-4-methoxybenzylsulfanyl)-8-ethyl-9-methyl-6-morpholino-9H-purine]
- T/C [1]: 62.1%
- GI50 [2]: 110 nM
- T/C [5]: 73.1%
- T/C [9]: 32.2%
